{"source": "patent US20230364032A1", "about": "“USE OF 2-HOBA TO TREAT ATHEROSCLEROSIS” (Vanderbilt University, priority 2020, published 2023)", "key": {"MDA-HDL": {"test_system": "MDA-HDL", "test": "MDA adducts in isolated HDL by ELISA", "type": "in vivo, mouse", "conditions": "Ldlr−/− mice", "procedure": "FIGS. 7A-7G show the effects of 2-HOBA on MDA-HDL adducts and HDL function. (7A) The levels or MDA adducts were measured by ELISA in HDL isolated from Ldlr mice treated as described in FIG. 1. Data are presented as mean±SEM (N=8 pet group), *** p<0.001, One-way ANOVA with Bonferroni's post hoc test. (7B) Western blots of apoAl and MDA-apoAl in HDL isolated from plasma by immunoprecipitation using primary anti-apoAl antibody. Ldlf mice were treated as described In FIG. 1 and apoAl and MDA-apoAl from Ldlr mice consuming a chow diet are included f0t comparison. (7C) Quantitation using lmageJ software of the mean density ratio (arbitrary units) of MDA-apoAl to apoAl detected by Western blotting (7B). (7D The HDL was isolated from the plasma of Ld/r-mice consuming a western diet for 16 weeks and treated with 2-HOBA or 4-HOBA or vehicle. Cholesterol enriched macrophages were incubated for 24 h with HDL (25 μg protein/ml). and the % reduction in cellular cholesterol content measured. Data presented as mean±SEM. N=7 per group, *p<0.05.**p<0.01, One-way ANOVA with Bonferroni's post hoc test (7E) The MDA adducts were measured by ELISA in HDL isolated from control or FH subjects before and after LDL apheresis. N=7 or 8, ***p<0.001, One-way ANOVA with Bonferroni's post hoc test. (7F) The MDA-Lysyl crosslink content in HDL from control or FH subjects (n=6 per group), p=0.02, Mann-Whitney test (7G) The capacity of HDL from control or FH subjects pre and post LDL apheresis (n=7 per group) to reduce the cholesterol content of apoE macrophages.\nThe study was approved by the Vanderbilt University Institutional Review Board (IRB), and all participants gave their written informed consent. The human blood samples from patients with severe FH, who were undergoing LDL apheresis, and healthy controls were obtained using an IRB approved protocol. […] After stopping the reaction, the O.D. was measured at 450 nm wavelength. MDA-ApoAI was detected in mouse plasma by immunoprecipitation of ApoAI and western blotting. […] Proteins were visualized and quantitated by Odyssey 3.0 Quantification software (LI-COR)."}, "[1]": {"target": "anti-MDA antibody / MDA-BSA (Bos taurus, UniProt P02769)", "sequence (P02769 25-607)": "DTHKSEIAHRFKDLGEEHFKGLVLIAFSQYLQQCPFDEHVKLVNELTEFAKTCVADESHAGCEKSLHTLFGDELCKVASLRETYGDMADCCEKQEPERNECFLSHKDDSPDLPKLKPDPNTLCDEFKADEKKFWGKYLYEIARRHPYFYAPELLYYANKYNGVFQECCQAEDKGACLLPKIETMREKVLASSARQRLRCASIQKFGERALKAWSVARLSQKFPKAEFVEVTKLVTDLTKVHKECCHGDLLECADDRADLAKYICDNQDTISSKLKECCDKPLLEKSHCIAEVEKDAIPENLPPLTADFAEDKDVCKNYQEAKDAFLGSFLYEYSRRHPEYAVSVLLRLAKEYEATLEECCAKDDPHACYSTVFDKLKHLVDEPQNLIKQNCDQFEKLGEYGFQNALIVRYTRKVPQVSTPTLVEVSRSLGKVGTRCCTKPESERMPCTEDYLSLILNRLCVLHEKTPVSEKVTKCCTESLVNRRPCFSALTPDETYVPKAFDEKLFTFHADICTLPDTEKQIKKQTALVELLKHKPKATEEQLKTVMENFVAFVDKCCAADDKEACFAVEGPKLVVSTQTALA", "test": "Anti-MDA antibody interaction with MDA-BSA (dot blot)", "conditions": "MDA-BSA incubated with 1× or 5× 2-HOBA", "procedure": "A series of doses of MDA-BSA or MDA alone were incubated with 1× or 5×2-HOBA. Then 2 μl of each sample was loaded onto HyBond-C membrane, and incubated with the blocking buffer, primary anti-MDA antibody and fluorescent secondary antibody after vigorous washing. The image was captured by the Odyssey system (FIG. 10A) and quantitated by ImageJ software (FIG. 10B)."}, "[2]": {"test_system": "MDA- and IsoLG-lysyl adducts", "test": "Aorta dilysyl-MDA crosslinks and IsoLG-lysyl adducts by LC/MS/MS", "type": "in vivo, mouse", "conditions": "Ldlr−/− mice", "procedure": "Isolation and LC/MS measurement of isolevuglandin-lysyl-lactam (IsoLG-Lys) adducts from aorta of 2-HOBA and 4-HOBA treated Ldlr^−/− mice were performed using a Waters Xevo-TQ-Smicro triple quadrupole mass spectrometer as previously described^69.\nSamples (around 1 mg of protein) were digested with proteases as previously described for lysyl-lactam adducts^70. Five nanograms of ^13C6-dilysyl-MDA crosslink standard were added to each cell sample and dilysyl-MDA crosslinks were purified as previously described^71. The dilysyl-MDA crosslink was quantified by isotopic dilution by LC-EST/MS/MS as previously described^71."}, "MDA-protein adducts": {"test_system": "MDA-protein adducts", "test": "Proximal aortic lesion MDA adducts by immunofluorescence", "type": "in vivo, mouse", "conditions": "Ldlr−/− mice", "excerpt": "The extent of atherosclerosis was examined both Oil-Red-O-stained cross-sections of the proximal aorta and by en face analysis^30. Briefly, cryosections of 10-micron thickness were cut from the region of the proximal aorta starting from the end of the aortic sinus and for 300 μm distally, according to the method of Paigen et al.^62. The Oil red-O staining of 15 serial sections from the root to ascending aortic region were used to quantify the Oil red-O-positive staining area per mouse. The mean from the 15 serial sections was applied for the aortic root atherosclerotic lesion size per mouse using the KS300 imaging system (Kontron Elektronik GmbH) as described^63, 64, 65. All other stains were done using sections that were 40 to 60 μm distal of the aortic sinus. For each mouse, 4 sections were stained and quantitation was done on the entire cross section of all 4 sections. For immunofluorescence staining, 5 μm cross-sections of the proximal aorta were fixed in cold acetone (Sigma), blocked in Background Buster (Innovex), incubated with indicated primary antibodies (MDA and CD68) at 4° C. for overnight. After incubation with fluorescent labeled secondary antibodies at 37 C for 1 hour, the nucleus was counterstained with Hoechst. Images were captured with a fluorescence microscope (Olympus IX81) and SlideBook 6 (Intelligent-Image) software and quantitated using ImageJ software (NIH)^66."}}, "note": "“Also recorded” adds a separate entry of the source."}
{"smiles": "NCc1ccccc1O", "note": "[2-HOBA, 2-hydroxybenzylamine]", "values": [{"measurement": "MDA content in HDL", "setting": "MDA-HDL", "result": "reduced"}, {"measurement": "reduction of MDA adduct content of isolated HDL (ELISA)", "setting": "MDA-HDL; compared to 4-HOBA", "result": 56, "unit": "%"}, {"measurement": "reduction of MDA adduct content of isolated HDL (ELISA)", "setting": "MDA-HDL; compared to vehicle", "result": 57, "unit": "%"}, {"measurement": "interference with antibody recognition of MDA-albumin adducts", "setting": "[1]", "result": "does not interfere; also recorded: does not impact"}, {"measurement": "MDA and IsoLG adduct content of atherosclerotic lesions/aortas", "setting": "[2]", "result": "decreases; also recorded: markedly reduced"}, {"measurement": "decrease of whole aorta IsoLG-lysyl adduct content", "setting": "[2]; compared to 4-HOBA treatment", "result": 23, "unit": "%"}, {"measurement": "decrease of whole aorta MDA-lysyl adduct content", "setting": "[2]; compared to 4-HOBA treatment", "result": 59, "unit": "%"}, {"measurement": "reduction of proximal aortic MDA adduct levels (immunofluorescence)", "setting": "MDA-protein adducts; compared to 4-HOBA", "result": 66.8, "unit": "%"}, {"measurement": "reduction of proximal aortic MDA adduct levels (immunofluorescence)", "setting": "MDA-protein adducts; compared to vehicle alone", "result": 68.5, "unit": "%"}]}
